The subject of test [1] is Septoria tritici—SEPTTR. Nature of the test: Leaf Blotch of Wheat, in vivo whole plant, 24 Hour Protectant. The conditions noted are these: for pest or weed control at 100 ppm: Zymoseptoria tritici, 24 h, read-out: SEPTTR in vivo 1 Day Protectant.
Test [2] has as its system Magnaporthe grisea (Pyricularia oryzae—PYRIOR). Nature of the test: microbe, parasite or virus in culture. The conditions noted are these: Pyricularia oryzae, read-out: PYRIOR in vitro Growth Inhibition. Format: cell-based.
For test [3], the system named is Stagonospora nodorum (Leptosphaeria nodorum—LEPTNO). Nature of the test: In vitro fungal growth inhibition, Stagonospora nodorum (LEPTNO). Format: cell-based. The conditions noted are these: Leptosphaeria, read-out: LEPTNO in vitro Growth Inhibition.
For test [4], the system named is Phytophthora infestans—PHYTIN. Nature of the test: whole plant or invertebrate. Format: in vivo. The conditions noted are these: Phytophthora, in Solanum lycopersicum, 24 h, read-out: PHYTIN in vivo 1 Day Protectant.
In test [5] the test system is Ustilago maydis (USTIMA). Nature of the test: microbe, parasite or virus in culture. Format: cell-based. As to conditions: Mycosarcoma maydis, read-out: USTIMA in vitro Growth Inhibition.
Test [6] relates to Puccinia recondita—PUCCRT. Nature of the test: Brown Rust of Wheat, in vivo whole plant, 24 Hour Protectant. The conditions noted are these: Puccinia, read-out: PUCCRT in vivo 1 Day Protectant.
Test [7] relates to Erysiphe graminis—ERYSGT. Nature of the test: Powdery Mildew of Wheat, in vivo whole plant, 24 Hour Protectant. The conditions noted are these: Erysiphe, read-out: ERYSGT in vivo 1 Day Protectant.
Test [8] relates to Leptosphaeria nodorum—LEPTNO. Nature of the test: Glume Blotch of Wheat, in vivo whole plant, 24 Hour Protectant. As to conditions: for pest or weed control at 100 ppm: Leptosphaeria, read-out: LEPTNO in vivo 1 Day Protectant.
Test [9] concerns Mycosphaerella graminicola (Septoria tritici—SEPTTR). Nature of the test: In vitro fungal growth inhibition, Mycosphaerella graminicola (SEPTTR). Format: cell-based. The conditions noted are these: Zymoseptoria tritici, read-out: SEPTTR in vitro Growth Inhibition.
The subject of test [10] is Phytophthora infestans (PHYTIN). Nature of the test: microbe, parasite or virus in culture. As to conditions: Phytophthora infestans, read-out: PHYTIN in vitro Growth Inhibition. Format: cell-based.
Test [11] deals with Rhizoctonia solani (RHIZSO). Nature of the test: microbe, parasite or virus in culture. It counts as cell-based. The conditions noted are these: Rhizoctonia solani, read-out: RHIZSO in vitro Growth Inhibition.
Setting [12] is: 100 ppm spray, 24 hour protectant, wheat, control of fungal infection vs untreated plants.
Where [13] appears, read: 100 ppm spray, wheat, 24 hour protectant, control of fungal infection vs untreated plants.

SMILES strings stand for the structures. Read-outs that look alike come from different tables or passages of the source.

Usually inhibition stands for the percentage by which the read-out fell short of the control. As for `COc1ccnc(C(=O)NC(C)c2ccc(C(F)(F)F)cc2)c1O` (stereo not shown) [Compound 247], the pest or weed control at 100 ppm in [1] (setting [12]) was 25 to 74%; in test [4] it was less than 25%; in [6] (setting [12]) it was less than 25%; in [7] (setting [12]), less than 25%; in test [8] (setting [12]) it was 25 to 74%. In addition, the inhibition at 25 ppm in [2] was less than 80%; in test [3] (25 ppm in growth medium), greater than 80%; in test [5] it was less than 80%; in test [9] (25 ppm in growth medium) it was greater than 80%; in test [10], less than 80%; in [11] it was less than 80%.
Consider `CCC1(C)OCC(NC(=O)c2nccc(OC)c2O)CO1` (stereo not shown) [Compound 314], for which the pest or weed control at 100 ppm in [1] (setting [12]) is less than 25%; in test [4], less than 25%; in test [6] (setting [12]) it was less than 25%; in [7] (setting [12]), less than 25%; in [8] (setting [12]), 25 to 74%. Besides, the inhibition at 25 ppm in test [2], in test [3] (25 ppm in growth medium), in [5], in test [9] (25 ppm in growth medium), in test [10] and in test [11] was less than 80% in each case.
For the molecule `COc1ccnc(C(=O)N[C@H]2COC(=O)[C@H](Cc3ccccc3)[C@@H](OC(=O)Cc3ccccc3)[C@H](C)OC2=O)c1O` [Compound 395], the pest or weed control at 100 ppm is 25 to 74% in [1]; less than 25% in [4]; 25 to 74% in [6] (24 h); less than 25% in test [7] (24 h); 25 to 74% in test [8] (24 h). The inhibition at 25 ppm is less than 80% in [2]; greater than 80% in [3]; greater than 80% in test [5]; greater than 80% in test [9]; less than 80% in [10]; less than 80% in test [11].
Turning to `COc1ccnc(C(=O)N[C@H]2CC3CC2[C@@H](COCc2cccc(C(F)(F)F)c2)C3)c1O` (stereo partly shown) [Compound 295], the “SEPTTR in vivo 1 Day Protectant” value in test [1] (setting [12]) is listed as “+ +”. In addition, the inhibition at 25 ppm in [2] is greater than 80%; in [3] (25 ppm in growth medium), greater than 80%; in test [5] it was less than 80%; in [9] (25 ppm in growth medium), greater than 80%; in test [10] it was less than 80%; in test [11], greater than 80%. Also, the pest or weed control at 100 ppm in test [4] was less than 25%; in test [6] (setting [12]), 25 to 74%; in [7] (setting [12]), less than 25%; in test [8] (setting [12]) it was 25 to 74%.
With `COc1ccnc(C(=O)N[C@H]2COC(=O)[C@H](Cc3ccccc3)[C@@H](OC(=O)OC(C)C)[C@H](C)OC2=O)c1O` [Compound 401], the pest or weed control at 100 ppm was 25 to 74% in test [1] (setting [13]), less than 25% in test [4], 25 to 74% in [6] (setting [13]) and less than 25% in [7] (setting [13]). The inhibition at 25 ppm in [2] was greater than 80%; in [3] (25 ppm in growth medium) it was greater than 80%; in test [5], greater than 80%; in [9] (25 ppm in growth medium) it was greater than 80%; in test [10], less than 80%; in test [11], less than 80%. In test [8] (setting [13]), the “LEPTNO in vivo 1 Day Protectant” value was “+ +”.

The values above are taken from patent US6706740B2, “Fungicidal heterocyclic aromatic amides and their compositions, methods of use and preparation” (Dow AgroSciences LLC, priority 1999, dated 2004).
